# Measurements: patent US10954287B2, “Ras binding peptides and methods of use” (Ra Pharmaceuticals, Inc., priority 2016, dated 2021)
# System: GMPPNP-loaded H-Ras or GTP-loaded K-Ras
# Experiment: Fluorescence polarization competition assay with TAMRA-labeled probe R4007
# Assay type: binding, human
# Conditions: 120 nM Ras, 30 nM probe R4007, 60 minutes at room temperature; read-out: Probe displacement (nM IC50)
# Experimental: R4000 was evaluated for competition with a TAMRA labeled probe (R4007) based on peptide R4000. The assay was performed in 384-well black, non-binding plates (Greiner Bio-One, Monroe, N.C.). GMPPNP-loaded H-Ras or GTP-loaded K-Ras, diluted in FP assay buffer (20 mM Tris-HCl, pH 7.5, 50 mM NaCl, 5 mM MgCl2, 1 mM EDTA, 0.002% Triton-X-100) for a final concentration of 120 nM was incubated with 30 nM R4007 for 20 minutes at room temperature. R4000 was serially diluted, added to the assay and incubated for 60 minutes at room temperature. Fluorescence polarization was detected with a SpectraMax Paradigm plate reader (Molecular Devices, Sunnyvale, Calif.) using the Rhodamine FP detection cartridge (535 nm/595 nm). Data was analyzed using GraphPad Prism and Ki determined using One Site Ki Curve fitting model.
# Peptides were evaluated for competition with R4007, a probe consisting of TAMRA-labeled R4000, using a fluorescence polarization (FP) competition assay. The assay was performed in 384-well black, non-binding plates (Greiner Bio-One, Monroe, N.C.). GMPPNP-loaded H-Ras or GTP- loaded K-Ras, diluted in FP assay buffer (20 mM Tris-HCl, pH 7.5, 50 mM NaCl, 5 mM MgCl2, 1 mM EDTA, 0.002% Triton-X-100) for a final concentration of 120 nM was incubated with 30 nM probe for 20 minutes at room temperature. Peptides were serially diluted, added to the assay and incubated for 60 minutes at room temperature. Fluorescence was detected with a SpectraMax Paradigm plate reader (Molecular Devices, Sunnyvale, Calif.) using the Rhodamine FP detection cartridge (535 nm/595 nm). Data was analyzed and Ki determined using a One Site Ki Curve fitting model. Percent inhibition for each data point was calculated relative to the maximal binding in test compound-free control wells (showing no probe displacement) and Ras-free control wells (showing no probe binding) and the half-maximal inhibitory concentration (IC50), based on probe displacement, was determined.
row,Compound,IC50
1,"CCC[C@H](NC(C)=O)C(=O)N[C@H]1CSCc2cccc(c2)CSC[C@@H](C(N)=O)NC(=O)[C@H](Cc2c[nH]cn2)NC(=O)[C@H](CCC)NC(=O)[C@H](Cc2c[nH]c3ncccc23)NC(=O)[C@H](CCC(=O)O)NC(=O)[C@H](Cc2c[nH]c3ncccc23)NC(=O)[C@H](Cc2c[nH]c3ncccc23)NC(=O)[C@H]([C@@H](C)O)NC(=O)[C@H](Cc2c[nH]cn2)NC(=O)[C@H](Cc2ccc(O)cc2)NC(=O)[C@H](C(C)(C)C)NC1=O (relative stereo) [Compound R4100, ACE-NVA-CYS*-TBG-TYR-HIS-THR-7AW-7AW-GLU-7AW-NVA-HIS-CYS*-NH2]",1.06 nM
2,"CCC[C@H](NC(C)=O)C(=O)N[C@H]1CSCc2cccc(c2)CSC[C@@H](C(=O)N[C@H](CO)C(=O)N[C@H](C)C(=O)NCC(=O)N[C@@H](CS)C(=O)N[C@H](C(=O)N[C@H](C(=O)N[C@@H](CCSC)C(=O)O)[C@@H](C)CC)C(C)C)NC(=O)CN(C)C(=O)[C@H](Cc2ccc(F)cc2)N(C)C(=O)[C@H](Cc2ccc(O)cc2)NC(=O)[C@H](Cc2c[nH]c3ncccc23)NC(=O)[C@H](c2ccccc2)NC(=O)[C@H](C)N(C)C(=O)[C@H](Cc2c[nH]cn2)NC(=O)[C@H](CCCCN)NC(=O)[C@H](C(C)(C)C)NC(=O)[C@H](Cc2ccc(O)cc2)NC1=O (relative stereo) [Compound R4102, ACE-NVA-CYS*-TYR-TBG-LYS-HIS-NMA-PHG-7AW-TYR-MFF-SAR-CYS*-DSER-DALA-GLY-CYS-VAL-ILE-MET]",1.82 nM
3,"CCC[C@H](NC(C)=O)C(=O)N[C@H]1CSCc2cccc(c2)CSC[C@@H](C(=O)N[C@H](CO)C(=O)N[C@@H](CCCCN)C(=O)NCC(=O)N[C@@H](CS)C(=O)N[C@H](C(=O)N[C@H](C(=O)N[C@@H](CCSC)C(=O)O)[C@@H](C)CC)C(C)C)NC(=O)CN(C)C(=O)[C@H](Cc2ccc(F)cc2)N(C)C(=O)[C@H](Cc2ccc(O)cc2)NC(=O)[C@H](Cc2c[nH]c3ncccc23)NC(=O)[C@H](c2ccccc2)NC(=O)[C@H](C)N(C)C(=O)[C@H](Cc2c[nH]cn2)NC(=O)[C@H](CCCCN)NC(=O)[C@H](C(C)(C)C)NC(=O)[C@H](Cc2ccc(O)cc2)NC1=O (relative stereo) [Compound R4105, ACE-NVA-CYS*-TYR-TBG-LYS-HIS-NMA-PHG-7AW-TYR-MFF-SAR-CYS*-DSER-LYS-GLY-CYS-VAL-ILE-MET]",3.31 nM
4,"CCC[C@H](NC(C)=O)C(=O)N[C@H]1CSCc2cccc(c2)CSC[C@@H](C(=O)N[C@H](CO)C(=O)N[C@@H](CCCCN)C(=O)NCC(=O)N[C@@H](CSSC(C)(C)C)C(=O)N[C@H](C(=O)N[C@H](C(=O)N[C@@H](CCSC)C(=O)O)[C@@H](C)CC)C(C)C)NC(=O)CN(C)C(=O)[C@H](Cc2ccc(F)cc2)N(C)C(=O)[C@H](Cc2ccc(O)cc2)NC(=O)[C@H](Cc2c[nH]c3ncccc23)NC(=O)[C@H](c2ccccc2)NC(=O)[C@H](C)N(C)C(=O)[C@H](Cc2c[nH]cn2)NC(=O)[C@H](CCCCN)NC(=O)[C@H](C(C)(C)C)NC(=O)[C@H](Cc2ccc(O)cc2)NC1=O (relative stereo) [Compound R4109, ACE-NVA-CYS*-TYR-TBG-LYS-HIS-NMA-PHG-7AW-TYR-MFF-SAR-CYS*-DSER-LYS-GLY-TDSPA-VAL-ILE-MET]",14.2 nM
5,"CCC[C@H](NC(C)=O)C(=O)N[C@H]1CSCc2cccc(c2)CSC[C@@H](C(=O)N[C@H](CO)C(=O)N[C@@H](CCCCN)C(=O)NCC(=O)N[C@@H](CSSC(C)(C)C)C(=O)N[C@H](C(=O)N[C@H](C(=O)N[C@@H](CC(C)C)C(=O)O)C(C)C)C(C)C)NC(=O)CN(C)C(=O)[C@H](Cc2ccc(F)cc2)N(C)C(=O)[C@H](Cc2ccc(O)cc2)NC(=O)[C@H](Cc2c[nH]c3ncccc23)NC(=O)[C@H](c2ccccc2)NC(=O)[C@H](C)N(C)C(=O)[C@H](Cc2c[nH]cn2)NC(=O)[C@H](CCCCN)NC(=O)[C@H](C(C)(C)C)NC(=O)[C@H](Cc2ccc(O)cc2)NC1=O (relative stereo) [Compound R4110, ACE-NVA-CYS*-TYR-TBG-LYS-HIS-NMA-PHG-7AW-TYR-MFF-SAR-CYS*-DSER-LYS-GLY-TDSPA-VAL-VAL-LEU]",16.4 nM

# Results, then the compound that gave them:
row,IC50,Compound
1,7.92 nM,"CCC[C@H](N)C(=O)N[C@H]1CSCc2cccc(c2)CSC[C@@H](C(N)=O)NC(=O)CN(C)C(=O)[C@H](Cc2ccc(F)cc2)N(C)C(=O)[C@H](Cc2ccc(O)cc2)NC(=O)[C@H](Cc2c[nH]c3ncccc23)NC(=O)[C@H](c2ccccc2)NC(=O)[C@H](C)N(C)C(=O)[C@H](Cc2cnc[nH]2)NC(=O)[C@H](CCCCN)NC(=O)[C@H](C(C)(C)C)NC(=O)[C@H](Cc2ccc(O)cc2)NC1=O (relative stereo) [Compound R4002, NVA-CYS*-TYR-TBG-LYS-HIS-NMA-PHG-7AW-TYR-MFF-SAR-CYS*-NH2]"
2,1.45 nM,"CCC[C@H](NC(C)=O)C(=O)N[C@H]1CSCc2cccc(c2)CSC[C@@H](C(N)=O)NC(=O)[C@H](C)N(C)C(=O)[C@H](Cc2ccc(F)cc2)N(C)C(=O)[C@H](Cc2ccc(O)cc2)NC(=O)[C@H](Cc2c[nH]c3ncccc23)NC(=O)[C@H](c2ccccc2)NC(=O)[C@H](C)N(C)C(=O)[C@H](Cc2c[nH]cn2)NC(=O)[C@H](CCCCN)NC(=O)[C@H](C(C)(C)C)NC(=O)[C@H](Cc2ccc(O)cc2)NC1=O (relative stereo) [Compound R4101, ACE-NVA-CYS*-TYR-TBG-LYS-HIS-NMA-PHG-7AW-TYR-MFF-NMA-CYS*-NH2]"
3,2 nM,"CCC[C@H](NC(=O)CCCC(=O)O)C(=O)N[C@H]1CSCc2cccc(c2)CSC[C@@H](C(N)=O)NC(=O)CN(C)C(=O)[C@H](Cc2ccc(F)cc2)N(C)C(=O)[C@H](Cc2ccc(O)cc2)NC(=O)[C@H](Cc2c[nH]c3ncccc23)NC(=O)[C@H](c2ccccc2)NC(=O)[C@H](C)N(C)C(=O)[C@H](Cc2c[nH]cn2)NC(=O)[C@H](CCCCN)NC(=O)[C@H](C(C)(C)C)NC(=O)[C@H](Cc2ccc(O)cc2)NC1=O (relative stereo) [Compound R4103, GLA-NVA-CYS*-TYR-TBG-LYS-HIS-NMA-PHG-7AW-TYR-MFF-SAR-CYS*-NH2]"
4,3.29 nM,"CC(=O)N[C@@H](CO)C(=O)N[C@H]1CSCc2cccc(c2)CSC[C@@H](C(N)=O)NC(=O)CN(C)C(=O)[C@H](Cc2ccc(F)cc2)N(C)C(=O)[C@H](Cc2ccc(O)cc2)NC(=O)[C@H](Cc2c[nH]c3ncccc23)NC(=O)[C@H](c2ccccc2)NC(=O)[C@H](C)N(C)C(=O)[C@H](Cc2c[nH]cn2)NC(=O)[C@H](CCCCN)NC(=O)[C@H](C(C)(C)C)NC(=O)[C@H](Cc2ccc(O)cc2)NC1=O (relative stereo) [Compound R4104, ACE-SER-CYS*-TYR-TBG-LYS-HIS-NMA-PHG-7AW-TYR-MFF-SAR-CYS*-NH2]"
5,8.38 nM,"CCC[C@H](NC(=O)CCCCCCNC(=O)[C@H](CC(C)C)NC(=O)[C@@H](O)[C@H](N)Cc1ccccc1)C(=O)N[C@H]1CSCc2cccc(c2)CSC[C@@H](C(N)=O)NC(=O)CN(C)C(=O)[C@H](Cc2ccc(F)cc2)N(C)C(=O)[C@H](Cc2ccc(O)cc2)NC(=O)[C@H](Cc2c[nH]c3ncccc23)NC(=O)[C@H](c2ccccc2)NC(=O)[C@H](C)N(C)C(=O)[C@H](Cc2c[nH]cn2)NC(=O)[C@H](CCCCN)NC(=O)[C@H](C(C)(C)C)NC(=O)[C@H](Cc2ccc(O)cc2)NC1=O (relative stereo) [Compound R4106, UBX-AHPA-NVA-CYS*-TYR-TBG-LYS-HIS-NMA-PHG-7AW-TYR-MFF-SAR-CYS*-NH2]"
6,9.42 nM,"C#CC[C@H](NC(=O)CCOCCOCCOCCOCCNC(=O)[C@@H]1CSCc2cccc(c2)CSC[C@H](NC(=O)[C@H](CCC)NC(C)=O)C(=O)N[C@@H](Cc2ccc(O)cc2)C(=O)N[C@@H](C(C)(C)C)C(=O)N[C@@H](CCCCN)C(=O)N[C@@H](Cc2c[nH]cn2)C(=O)N(C)[C@@H](C)C(=O)N[C@@H](c2ccccc2)C(=O)N[C@@H](Cc2c[nH]c3ncccc23)C(=O)N[C@@H](Cc2ccc(O)cc2)C(=O)N(C)[C@@H](Cc2ccc(F)cc2)C(=O)N(C)CC(=O)N1)C(N)=O (relative stereo) [Compound R4107, ACE-NVA-CYS*-TYR-TBG-LYS-HIS-NMA-PHG-7AW-TYR-MFF-SAR-CYS*-PEG4PA-PRG-NH2]"
7,9.45 nM,"CCC[C@H](NC(C)=O)C(=O)N[C@H]1CSCc2cccc(c2)CSC[C@@H](C(=O)O)NC(=O)CN(C)C(=O)[C@H](Cc2ccc(F)cc2)N(C)C(=O)[C@H](Cc2ccc(O)cc2)NC(=O)[C@H](Cc2c[nH]c3ncccc23)NC(=O)[C@H](c2ccccc2)NC(=O)[C@H](C)N(C)C(=O)[C@H](Cc2c[nH]cn2)NC(=O)[C@H](CCCCN)NC(=O)[C@H](C(C)(C)C)NC(=O)[C@H](Cc2ccc(O)cc2)NC1=O (relative stereo) [Compound R4108, ACE-NVA-CYS*-TYR-TBG-LYS-HIS-NMA-PHG-7AW-TYR-MFF-SAR-CYS*]"
